Results published in PubChem BioAssay (NCI).
Where “and” joins values, the source holds several entries; their conditions need not be identical. Equal values may be shown once.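 1) Cells in 96-well plates. 2) Compound, 48 h, 5 concentrations. 3) Linear interpolation between surrounding doses. 4) Unreached endpoint = highest concentration. The concentration for 50% growth inhibition is given as GI50. TGI marks complete inhibition of growth.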

Tests used:
Experiment in all cases: NCI-60 cell line screen, 48 h
A498 renal = system: A498 renal
RXF 393 renal = system: RXF 393 renal
ACHN renal = system: ACHN renal
MALME-3M melanoma = system: MALME-3M melanoma
SK-MEL-28 melanoma = system: SK-MEL-28 melanoma
K-562 leukemia = system: K-562 leukemia
SF-539 CNS = system: SF-539 CNS
NCI-H522 lung = system: NCI-H522 lung
OVCAR-4 ovarian = system: OVCAR-4 ovarian
MOLT-4 leukemia = system: MOLT-4 leukemia

Compound	GI50 (A498 renal) [µM]	TGI (A498 renal)	GI50 (RXF 393 renal) [µM]	TGI (RXF 393 renal) [µM]	GI50 (ACHN renal) [µM]	TGI (ACHN renal)	GI50 (MALME-3M melanoma) [µM]	TGI (MALME-3M melanoma)	GI50 (SK-MEL-28 melanoma) [µM]	TGI (SK-MEL-28 melanoma)	GI50 (K-562 leukemia) [µM]	TGI (K-562 leukemia)	GI50 (SF-539 CNS) [µM]	TGI (SF-539 CNS)	GI50 (NCI-H522 lung) [µM]	TGI (NCI-H522 lung)	GI50 (OVCAR-4 ovarian) [µM]	TGI (OVCAR-4 ovarian) [µM]	GI50 (MOLT-4 leukemia) [µM]	TGI (MOLT-4 leukemia) [µM]
CCN(CC)CC(O)c1cc(-c2ccc(Cl)cc2)nc2cc(Cl)ccc12 (configuration not stated)	2.95	10.1 µM	2.75	7.32	1.64	3.39 µM	1.78	3.62 µM	1.76	3.21 µM	1.75	3.55 µM	2.03	4.63 µM	1.62	3.14 µM	3.3	10.6	1.68	3.48
Cc1nc2cc(Nc3nc(Nc4ccc(F)cc4)nc(N4CCCC4)n3)ccc2n1Cc1ccccc1	1.45	3.24 µM	1.55	3.09	2.19	5.41 µM	1.61	3.17 µM	1.88	3.92 µM			1.79	3.32 µM	1.69	4.07 µM	1.62	4	2.52	5.68
COc1cccc(/C=C2\CCc3ccccc3C2=O)c1	12.1	25.1 µM	16.1	32.4	10.2	25.3 µM	12.7	29 µM	15.5	31 µM	3.29	57.1 µM	16.4	36.9 µM	4.09	22.3 µM	13.7	54.5	3.38	25.2
Cn1c(=O)c(-c2c(Cl)cccc2Cl)cc2cnc(Nc3ccc(I)cc3)nc21	< 0.01	< 0.01 µM	2.44	15		0.712 µM	0.413	3.09 µM	0.479	> 73.6 µM	< 0.01	< 0.01 µM	< 0.0146	0.114 µM	0.457	1.89 µM	0.213	7.49	0.0174	0.787
O=C(CC1(O)C(=O)Nc2ccc([N+](=O)[O-])cc21)c1ccc(Br)cc1 (configuration not stated)		50.3 µM		71.1		> 100 µM		> 100 µM		> 100 µM		> 100 µM		> 100 µM		47.9 µM		> 100		> 100
O=C(NCCCl)NCc1ccccc1		> 100 µM		> 100		> 100 µM		> 100 µM		> 100 µM		> 100 µM				> 100 µM		> 100		> 100
c1ccc(N2N=NC3C4CC(C5c6ccccc6C45)C32)cc1 (configuration not stated)		> 100 µM		44.1				69.4 µM				> 100 µM		> 100 µM		50.9 µM		> 100		73.4
CN(CCCCN)c1ccc2c(=O)[nH][nH]c(=O)c2c1		> 100 µM		> 100		> 100 µM		> 100 µM		> 100 µM		> 100 µM		> 100 µM		> 100 µM		> 100		> 100
CC(C)(N)C(=O)N[C@@H]1C(=O)N2[C@@H]1SC(C)(C)[C@@H]2C(=O)O		> 100 µM		> 100		> 100 µM		> 100 µM		> 100 µM		> 100 µM		> 100 µM		> 100 µM		> 100		
Nc1nc(-c2ccc3ccccc3c2)cc(-c2cc(-c3ccc4ccccc4c3)nc(N)n2)n1		> 100 µM		> 100		> 100 µM		> 100 µM		> 100 µM		> 100 µM		> 100 µM		> 100 µM		> 100		> 100
NCCCCCCCCCn1c2c(c3ccccc3c1=O)C(=O)c1ccccc1-2	7.74	16.4 µM	10.2	24.3	8.2	17 µM	9.17	21.8 µM	9.98	23 µM	7.42	32.3 µM	9.83	19.3 µM	8.83	24.4 µM	10.3	25.9	4.1	40.4
O=C(NC(Cc1ccccc1)C(=O)CCl)OCc1ccccc1 (configuration not stated)	10.2	23 µM and 27.6 µM	3.62	14.2	3.72	13.3 µM and 21.8 µM	1.93	6.7 µM and 23.8 µM	5.55	19.3 µM and 25.3 µM	2.65	> 100 µM and 40.1 µM	3	10.3 µM and 16.8 µM	1.36	3.43 µM and 4.31 µM	2.04	13.5	3.56	25.4
CCOC(=O)Cn1c(=O)[nH]c(=O)c2[nH]cnc21		> 100 µM		> 100		> 100 µM		> 100 µM		> 100 µM		> 100 µM		> 100 µM		> 100 µM		> 100		> 100
COC(=O)c1cc2c(nc1C)-c1ccccc1OS2(=O)=O		> 100 µM		> 100		> 100 µM		> 100 µM				> 100 µM		> 100 µM		> 100 µM		> 100		> 100
CC/C(=C(/CC)c1ccc(O)cc1)c1ccc(O)cc1	12.4	25.2 µM	6.72	21.8	6.07	18.3 µM	5.54	25.1 µM	6.96	19.9 µM			5.84	19.7 µM	5.79	23 µM	8.06	37	5.29	66.4
Cn1cc(-c2ccc3nnc(C(F)(F)c4ccc5ncccc5c4)n3n2)cn1	24.8	> 100 µM	25.9	> 86.6	32.8	> 100 µM	64.1	> 100 µM	> 85.8	> 100 µM	78.1	> 100 µM	47.5	> 100 µM			38.5	> 100	52.5	> 100
ClCc1ccc(-c2ccc(Cn3cnc4c(Cl)ncnc43)cc2)cc1	20.5	37 µM	1.88	4.51	1.5	2.89 µM			2.49	7.79 µM	2.9	> 100 µM	1.52	3.14 µM	4.01	> 100 µM	1.46	4.28	1.79	> 100
COC(=O)C1=Cc2cn(S(=O)(=O)c3ccc(C)cc3)c3cccc(c23)C(C=C(C)C)N1C(C)=O (configuration not stated)		> 100 µM		> 100		> 100 µM		64.6 µM				> 100 µM		> 100 µM		20 µM		> 100		44.9

Compound	GI50 (A498 renal) [µM]	TGI (A498 renal)	GI50 (RXF 393 renal) [µM]	TGI (RXF 393 renal) [µM]	GI50 (ACHN renal) [µM]	TGI (ACHN renal)	GI50 (MALME-3M melanoma) [µM]	TGI (MALME-3M melanoma)	GI50 (SK-MEL-28 melanoma) [µM]	TGI (SK-MEL-28 melanoma)	GI50 (K-562 leukemia) [µM]	TGI (K-562 leukemia)	GI50 (SF-539 CNS) [µM]	TGI (SF-539 CNS)	GI50 (NCI-H522 lung) [µM]	TGI (NCI-H522 lung)	GI50 (OVCAR-4 ovarian) [µM]	TGI (OVCAR-4 ovarian) [µM]	GI50 (MOLT-4 leukemia) [µM]	TGI (MOLT-4 leukemia) [µM]
C[C@H]1CCC2C(CN3CCCCC3)C(=O)OC2[C@]2(C)C(=O)CC(N3CCCCC3)C12O (some centres not stated)		12.8 µM		4.31		9.73 µM		47.5 µM		32.9 µM		39.2 µM		7.93 µM		3.25 µM				10.9
CNC(=O)c1cc(Oc2ccc3nc(NC(=O)Nc4cc(C(F)(F)F)cc(C(F)(F)F)c4)sc3c2)ccn1	1.02	2.46 µM	1.25	2.99	0.542	1.98 µM	0.908	2.49 µM	1.29	2.93 µM	0.784	4.86 µM	1.24	2.8 µM	0.534	2.28 µM	0.958	2.73		
CCN(CC)CCNC(=O)C(Cl)=C1C(Cl)=C(Cl)C(Cl)=C1Cl	2.59	12.5 µM	3.76	15.9	3.35	24.6 µM	11.9	47.3 µM	2.45	7.11 µM	3.56	> 100 µM	4.33	53.1 µM	1.47	3.21 µM	4.17	15.6		
Cc1ccnc(NC(c2ccccc2)c2ccc3cccnc3c2O)c1 (configuration not stated)	2.08	9.55 µM	7.93	> 100	3.46	> 100 µM	2.89	34.9 µM	13.8	> 100 µM	3.27	> 100 µM	3.35	19.2 µM			3.2	27.1	2.53	> 100
Cc1cc(C)c(C2=NO[C@@H]3C(=O)N(c4ccc(Cc5ccc(N6C(=O)[C@H]7C(c8c(C)cc(C)cc8C)=NO[C@H]7C6=O)cc5)cc4)C(=O)[C@H]23)c(C)c1		> 100 µM		> 100				> 100 µM		> 100 µM		> 100 µM		> 100 µM				> 100		> 100
CSc1nc(SC)c2c(C)cn(C3OC(C)C(O)C(O)C3O)c2n1 (configuration not stated)		74.4 µM		> 100		> 100 µM		> 100 µM		> 100 µM				> 100 µM		> 100 µM		> 100		> 100
O=Cc1cn(S(=O)(=O)c2ccccc2)c2ccccc12		> 100 µM		> 100		> 100 µM		> 100 µM		> 100 µM		50 µM		> 100 µM				> 100		53.1
C1C[S][Ge]2([S]CCS1)[S]CCSCC[S]2	> 100	> 100 µM			> 100	> 100 µM	> 100	> 100 µM	> 100	> 100 µM	> 100	> 100 µM	> 100	> 100 µM	> 100	> 100 µM	> 100	> 100	> 100	> 100
Cc1nc(-n2nc(-c3ccccc3)cc2-c2ccccc2)sc1C(/C=C/c1ccc([N+](=O)[O-])cc1)=N/NC(N)=S		> 100 µM		> 100		> 100 µM		> 100 µM		> 100 µM		62.7 µM		> 100 µM						81.4
CCCCCCn1c2c(c3c(O)cccc31)C(=O)c1ccccc1-2	18.9	33.2 µM	12	28	16.6	30.3 µM			35.9	> 100 µM	23.7	58.4 µM	18	35.7 µM	17.2	35.9 µM	25	53	28.7	> 100
C/C(CC(=O)Nc1ccc([N+](=O)[O-])cc1)=N\Nc1ccc([N+](=O)[O-])cc1[N+](=O)[O-]		> 100 µM		> 100		> 100 µM		> 100 µM		> 100 µM		> 100 µM		> 100 µM		85.5 µM				> 100
CN(CC1NCCCC1O)C12CC3CC(CC(C3)C1)C2 (configuration not stated)		> 100 µM				> 100 µM		> 100 µM				> 100 µM		> 100 µM		> 100 µM		> 100		> 100
O=C1CCCCCCCCCCOC(=O)CCCCCCCCCCO1		> 100 µM		> 100		> 100 µM		> 100 µM		> 100 µM		> 100 µM		> 100 µM		> 100 µM		> 100		
CN1c2ccccc2S(=O)(=O)n2c(COc3ccccc3)nnc21		> 100 µM		> 100		> 100 µM				> 100 µM		> 100 µM		> 100 µM		> 100 µM		> 100		> 100
O=C1c2ccccc2-c2ccccc2C1(Cl)Cl	1.09	2.77 µM	1.78	3.2	1.72	3.53 µM	0.98	2.3 µM	1.8	3.24 µM	0.43	5.46 µM	1.71	3.23 µM			0.19	0.337	2.19	7.09
O=C(O)C1C2CCC(O2)C1C(=O)NCc1cccnc1 (configuration not stated)		> 100 µM		> 100		> 100 µM		> 100 µM		> 100 µM				> 100 µM		> 100 µM		> 100		
C=CCn1c(=O)c(C(=O)NC(=O)OCC)cn(C2CCCCC2)c1=O		> 100 µM				> 100 µM		> 100 µM		> 100 µM		> 100 µM		> 100 µM				> 100		> 100
